“Also recorded” adds a separate entry of the source.
How the values were obtained:
[1] = test system: WT mice; assay: Glutamine synthetase in liver mitochondria of treated WT mice; assay type: in vivo; details: 2HOBA treatment
Method: (§1) To assess mitochondrial respiration in cultured PMVECs, cells were seeded in growth media in a 96-well plate from Seahorse Biosciences (Bilerica, MA) at a seeding density of 50,000 live cells per well. The following day, cells were washed and placed in Seahorse Assay Media supplemented with specific substrates (1 gm/L glucose, 2 mM L-glutamine). After equilibration, oxygen consumption rates were measured on a Seahorse XFe96 analyzer using the Mito Stress Test protocol. For mitochondrial protein measurements, mitochondria were isolated from fresh murine liver tissue as previously described.^24
(§2) All animal studies were approved by the Vanderbilt IACUC. Male and female FVB/N mice were 10-16 weeks of age. BMPR2^R899X mice were generated and maintained as previously described.^24,25 For 2HOBA studies, 1 gm/L was administered in the drinking water, with water bottles protected from light and water changes every 2-3 days.
(§3) Having shown that impaired BMPR2 function is associated with loss of SIRT3 function, and that this can be prevented with 2HOBA treatment to scavenge damaging lipid peroxidation products, the present inventors next wished to assess the in vivo metabolic dysfunction downstream from BMPR2 mutation, the relationship to PAH, and the effect of 2HOBA treatment. […]

[2] = Long-term safety, continuous dosing in mice; assay type: in vivo; details: over 12 months of continuous dosing in mice
[3] = pre-clinical animal studies; cited from earlier work
[4] = test system: BMPR2^R899X mice; assay: Glutamine synthetase in liver mitochondria and circulating glutamine in treated BMPR2^R899X mice; assay type: in vivo
Method: as §1, §2, §3

[5] = test system: SIRT3; assay: Lysine acetylation and SIRT3 content of the mitochondrial proteome from treated BMPR2^R899X mice (Western blot); assay type: in vivo; details: 1 g/L 2HOBA in drinking water
Method: as §1, §2
Because sirtuin expression and activity is tightly regulated by substrate availability, nutrient intake, physical activity, and interacting signaling pathways operating between organ systems, the role of SIRT3 in BMPR2-mediated PAH is best studied in a murine model system. […] The mitochondrial proteome was assessed for acetylation of lysine residues, with SIRT3 inactivation leading to lysine hyperacetylation. […]

[6] = test system: BMPR2^R899X mice; assay: Development of PAH in BMPR2^R899X mice (total pulmonary resistance, cardiac output by echocardiography, invasive RVSP); assay type: in vivo
Method: as §2
Echocardiography was performed on anesthetized mice (isoflurane anesthesia) to determine cardiac output. Right ventricular systolic pressure (RVSP) was invasively measured as described, using bromoethanol as the anesthetic.^24,25
All statistics were performed using GraphPad Prism 6.0 or Microsoft Excel unless otherwise specified. For animal experiments, sample sizes were chosen based upon previous experiments with approximately 80% of transgenic animals showing RVSP>30 mm Hg. Animals were randomly assigned to treatment groups by cage. For all measurements, investigators were blind to treatments and genotype until data analysis. Data were analyzed using two-tailed t-test, or two-way ANOVA with Tukey's post-test, as indicated. Significance was set at α<0.05 after correction for multiple comparisons.
Having shown that impaired BMPR2 function is associated with loss of SIRT3 function, and that this can be prevented with 2HOBA treatment to scavenge damaging lipid peroxidation products, the present inventors next wished to assess the in vivo metabolic dysfunction downstream from BMPR2 mutation, the relationship to PAH, and the effect of 2HOBA treatment. The present inventors hypothesized that 2HOBA would prevent the development of PAH in BMPR2^R899X mice and would have a beneficial modulatory effect on glutamine metabolism in vivo. Expression of the BMPR2^R899X allele was sufficient to drive upregulation of glutamine synthetase in skeletal muscle (FIG. 10) and in liver mitochondria (FIG. 7A) compared to WT.

[7] = test system: BMPR2 mutant PMVEC; assay: Extracellular glutamine to glucose flux ratio in BMPR2 mutant PMVEC; assay type: cell-based; details: low-dose chetomin
Method: (§4) The present inventors used previously characterized WT and BMPR2 mutant (BMPR2^R899X) pulmonary microvascular endothelial cells isolated from conditionally immortalized murine lines generated on the ImmortoMouse background,^20 and WT and BMPR2 mutant PMVECs from a parent immortalized human line stably expressing either a WT or BMPR2 mutant construct transfected into the parent line and maintained under selection with G418S. […]
(§5) Glucose and lactate levels were measured using the YSI 2300 Stat Glucose and Lactate Analyzer (Yellow Springs, OH). High performance liquid chromatography (HPLC) was used to quantify amino acid concentrations, with norvaline as an internal standard. […] Flux rates were calculated using the ETA software package.^22
(§6) The present inventors next wished to determine the molecular events downstream from BMPR2 mutation that contribute to glutamine reliance. […] Then WT and BMPR2 mutant PMVEC was treated with chetomin, a pharmacologic inhibitor of HIF, and assessed glucose and glutamine uptake by quantifying the extracellular flux ratio of glutamine to glucose. […]

[8] = test system: WT PMVEC; assay: Extracellular glutamine to glucose flux ratio in WT PMVEC; assay type: cell-based; details: low-dose chetomin
Method: as §4, §5, §6

[9] = 2HOBA vs vehicle-treated mutants

Structure (SMILES) | glutamine synthetase in liver mitochondrial fraction [1] | toxicity [2] | safety profile [3] | circulating (plasma) glutamine ([4]; 2HOBA-treated BMPR2^R899X mice compared to 2HOBA-treated WT mice) | glutamine synthetase in liver mitochondria ([4]; BMPR2^R899X mice, 2HOBA treatment) | total SIRT3 content in the mitochondria [5] | lysine acetylation in the mitochondrial proteome ([5]; Western diet, isolated mitochondria) | development of pulmonary hypertension as measured by total pulmonary resistance ([6]; 2HOBA compared to vehicle-treated mice) | cardiac output [6, 9] | right ventricular systolic pressure (RVSP) [6, 9] | glutamine to glucose flux ratio [7] | glutamine to glucose flux ratio [8]
NCc1ccccc1O [2HOBA, 2-hydroxybenzylamine] | not substantially | no significant toxicity | excellent safety profile | significantly lower; also recorded: significantly reduces | reduced | without affecting | significantly reduced; also recorded: normalized | prevented the development of pulmonary hypertension; also recorded: to a level statistically indistinguishable from WT | modestly increased; also recorded: trends toward improved | decreased; also recorded: trends toward a decrease | – | –
CN1C(=O)[C@]2(Cc3cn([C@]45C[C@@]67SS[C@@](CO)(C(=O)N6[C@H]4Nc4ccccc45)N(C)C7=O)c4ccccc34)SS[C@@]1(CO)C(=O)N2C [chetomin] | – | – | – | – | – | – | – | – | – | – | significantly reduced | no effect; also recorded: essentially unaffected
